Test results from publication PMC4876372 (Scientific Reports, 2016).
Read-outs that look alike come from different tables or passages of the source.

Columns and labels:
[1] = system: HeLa cells; assay: Cell death assay (WST-8) in HeLa cells; assay type: cell-based, human
Description: (§1) Human cancer cell lines HeLa (cervical cancer), MIA PaCa-2 (pancreatic cancer), A431 (epidermoid carcinoma), and human embryonic kidney derived cell line HEK293T were cultured in Dulbecco’s Modified Eagle’s Medium (DMEM; Invitrogen) containing 10% fetal bovine serum (FBS), penicillin G (50 units/mL) and streptomycin (50 µg/mL). Human cancer cell lines Panc-1 (pancreatic cancer) and Jurkat (T cell lymphoma) were cultured in RPMI (Gibco) containing 10% FBS, penicillin G (50 units/mL) and streptomycin (50 µg/mL). Human osteosarcoma cell line MG-63, mouse embryonic fibroblast NIH3T3 cells and its transformant NIH3T3/KRAS cells1 were cultured in DMEM (Sigma-Aldrich) containing 10% calf serum, glutamine (0.3 g/L), penicillin G (50 units/mL), and streptomycin (50 µg/mL). All cell lines were incubated at 37 °C in a humidified atmosphere containing 5% CO2.
(§2) The cells were seeded in 96-well plates, cultured overnight, and treated with test compounds for the indicated time. Subsequently, cell viability was measured by the WST-8 assay, using Cell Count Reagent SF (Nacalai Tesque) according to the manufacturer ’s instructions, with the measurement of absorbance set at 450 nm on the ARVO SX 1420 Multilabel Counter (Wallac). […]

[2] = biological target: T1, His-tagged human recombinant MTH1 protein (Homo sapiens, UniProt P36639); assay: MTH1 enzyme assay (PPiLight pyrophosphate detection); assay type: biochemical; conditions: MTH1 2 nM
T1 construct: His; purchased ProSpec
Description: An MTH1 enzyme assay was performed as described previously with minor modifications. Briefly, test compounds were dissolved in an assay buffer [100 mM Tris-acetate, 40 mM NaCl, 10 mM Mg(OAc)2, 0.005% Tween-20, and 2 mM dithiothreitol (DTT), pH 7.5] containing His-tagged human recombinant MTH1 protein (2 nM; ProSpec). […] Relative MTH1 activity was measured by monitoring the pyrophosphate (PPi) generated through MTH1-catalyzed nucleotide triphosphate hydrolysis. The luciferase-mediated luminescence signal was recorded for 30 min using a luminometer (Molecular Devices).

[3] = biological target: T2, His-tagged human recombinant DCTPP1 protein (Homo sapiens, UniProt Q9H773); assay: DCTPP1 enzyme assay; assay type: biochemical; conditions: at 100 μM
T2 construct: His; purchased ATGen
T2 sequence (Q9H773 1-170): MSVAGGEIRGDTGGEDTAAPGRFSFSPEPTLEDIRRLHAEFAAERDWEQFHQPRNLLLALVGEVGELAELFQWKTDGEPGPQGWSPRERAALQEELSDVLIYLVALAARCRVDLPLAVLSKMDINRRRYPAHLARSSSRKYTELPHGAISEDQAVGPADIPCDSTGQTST
Description: Likewise, the enzymatic activities of ITPA and DCTPP1 were measured using a PPiLight Inorganic Pyrophosphate Assay kit. For the ITPA enzyme assay, we used ITPA assay buffer (100 mM Tris-acetate, 50 mM Mg(OAc)2, 0.005% Tween-20, and 2 mM DTT, pH 7.5), His-tagged human recombinant ITPA protein (5 nM; ProSpec), and ITP (25 μM). For the DCTPP1 enzyme assay, we used DCTPP1 assay buffer (100 mM Tris-acetate, 100 mM NaCl, 10 mM Mg(OAc)2, 0.005% Tween-20, and 2 mM DTT, pH 7.5), His-tagged human recombinant DCTPP1 protein (50 nM; ATGen), and deoxycytidine triphosphate (dCTP; 50 μM).
To exclude false positive compounds that inhibit PPi detection, the effects of test compounds on 10 μM Na4P2O7-induced luciferase activity were examined.

[4] = system: patient-derived malignant melanoma cells; design: method as in PMID 24695224; conditions: cited from earlier work
[5] = system: Bcl-2 phosphorylation in HeLa cells; assay: Detection of phosphorylated Bcl-2 (western blot); assay type: cell-based, human; conditions: 24 h, at the effective concentrations
Description: Western blot analysis for detection of phosphorylated Bcl-2 was performed as described previously with several modifications. Briefly, HeLa cells were treated with test compounds for 24 h, then harvested and lysed by sonication in a radioimmunoprecipitation assay buffer (RIPA) buffer containing 25 mM 4-(2-hydroxyethyl)-1-piperazineethanesulfonic acid (HEPES; pH 7.8), 0.5 M NaCl, 5 mM ethylenediaminetetraacetic acid (EDTA), 1.5% Triton-X-100, 1.0% sodium deoxycholate, and 0.1% sodium dodecyl sulfate (SDS), supplemented with a protease inhibitor cocktail (Roche). Samples were subjected to SDS-PAGE and transferred to a PVDF membrane. The membrane was incubated with a primary antibody against Bcl-2 (1:500, #M0887; DAKO) and a horseradish peroxidase-labeled secondary antibody (1:2000, 170-6516; Bio-Rad) in sequence. Then, they were visualized with Fusion Solo S using the SuperSignal West Pico Chemiluminescence Substrate. Phosphorylated Bcl-2 was detected on the upper side of unphosphorylated Bcl-2 by the mobility shift. As a loading control, α-tubulin was detected in the same samples by using a primary antibody against α-tubulin (1:2000, T9026; Sigma-Aldrich).

[6] = biological target: T3, porcine tubulin (Sus scrofa, UniProt P02550+P02554); assay: In vitro tubulin polymerization assay; assay type: biochemical; conditions: dose-dependent
T3 construct: purchased Cytoskeleton
T3 sequence (P02550 whole entry): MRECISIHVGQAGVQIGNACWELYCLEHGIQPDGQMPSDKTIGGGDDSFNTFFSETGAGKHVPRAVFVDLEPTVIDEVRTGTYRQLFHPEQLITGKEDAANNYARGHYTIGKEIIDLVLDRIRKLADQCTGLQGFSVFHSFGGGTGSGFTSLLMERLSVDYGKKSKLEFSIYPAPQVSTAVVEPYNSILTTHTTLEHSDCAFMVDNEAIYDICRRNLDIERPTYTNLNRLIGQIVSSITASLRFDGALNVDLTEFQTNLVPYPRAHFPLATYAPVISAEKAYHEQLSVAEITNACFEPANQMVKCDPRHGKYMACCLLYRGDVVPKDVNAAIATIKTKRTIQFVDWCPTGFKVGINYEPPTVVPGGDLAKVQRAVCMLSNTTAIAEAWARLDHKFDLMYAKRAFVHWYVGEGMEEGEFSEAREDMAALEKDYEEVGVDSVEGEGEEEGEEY
T3 sequence (P02554 whole entry): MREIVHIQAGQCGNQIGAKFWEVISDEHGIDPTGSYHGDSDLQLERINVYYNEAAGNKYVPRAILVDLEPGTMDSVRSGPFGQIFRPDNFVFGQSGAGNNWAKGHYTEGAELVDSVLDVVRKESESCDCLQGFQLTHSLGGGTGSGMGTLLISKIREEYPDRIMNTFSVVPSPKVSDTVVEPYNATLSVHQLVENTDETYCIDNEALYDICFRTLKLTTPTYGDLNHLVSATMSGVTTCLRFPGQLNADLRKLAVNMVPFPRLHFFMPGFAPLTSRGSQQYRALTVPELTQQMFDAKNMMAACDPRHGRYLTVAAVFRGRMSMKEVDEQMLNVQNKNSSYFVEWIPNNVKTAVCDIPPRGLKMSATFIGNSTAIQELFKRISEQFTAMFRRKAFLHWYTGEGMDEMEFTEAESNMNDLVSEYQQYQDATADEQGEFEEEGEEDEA
Description: In vitro tubulin polymerization assay was performed using a tubulin polymerization assay kit (Cytoskeleton) according to the manufacturer’s instructions. Briefly, lyophilized porcine tubulin was solubilized to a final concentration of 2 mg/mL in reaction buffer containing 80 mM piperazine-N,N′-bis(2-ethanesulfonic acid) (PIPES; pH 6.9), 2 mM MgCl2, 0.5 mM ethylene glycol tetraacetic acid (EGTA), 1 mM guanosine-5′-triphosphate (GTP), 10 μM fluorescent reporter, and 20% glycerol, and kept at 4 °C. Compounds (100 × DMSO stock solutions) were added to prewarmed half-area 96-well black plates. Cold tubulin solution was added to the wells. The plate contents were mixed by shaking, and fluorescence (Ex 350 nm, Em 435 nm) was read every minute for 1 h using a fluorescence microplate reader (Molecular Devices).

[7] = system: other members of the Nudix protein family, nucleoside triphosphate pyrophosphatases; design: method as in PMID 24695224; conditions: cited from earlier work
[8] = system: 87 enzymes, GPCRs, kinases, ion channels, and transporters; design: method as in PMID 24695224; conditions: at 10 μM; with few exceptions; cited from earlier work
[9] = system: HeLa cells; assay: Cell cycle analysis (propidium iodide flow cytometry); assay type: cell-based, human; conditions: 24 h
Description: The HeLa cells were seeded in 12-well plates and treated with test compounds for the indicated time. Cells were harvested, washed with PBS, and incubated in propidium iodide (PI) solution containing 50 µg/mL propidium iodide, 0.1% sodium citrate, 0.2% Nonidet P-40, and 0.25 µg/mL RNase A (Nacalai Tesque) for 30 mi n in the dark.
Cellular DNA content was analyzed by fluorescence-activated cell sorting using a Cytomics FC500 (Beckman Coulter). […]

[10] = system: intracellular microtubule networks in HeLa cells; assay: alpha-tubulin immunofluorescence (interphase microtubules); assay type: cell-based, human; conditions: 6 h, at cytotoxic concentrations
Description: For α-tubulin, immunofluorescence was performed as described previously with several modifications2. Briefly, test compound–treated HeLa cells were fixed in 3.7% formalin for 1 min and methanol at -20 °C for 5 min sequentially, and permeabilized in 0.5% Triton X-100 in PBS for 5 min. After blocking with 0.5% BSA in PBS at room temperature for 30 min, cells were incubated sequentially with a primary antibody against α-tubulin (1:200, T9026; Sigma-Aldrich) in the blocking solution at 37 °C for 1 h, and with Alexa Fluor 488-conjugated secondary antibody (1:400, Life Technologies) at 37 °C for 40 min. After a quick rinse in PBS, DNA was counterstained with 0.5 µg/mL Hoechst 33342 in PBS at room temperature for 10 min. Images were analyzed using a fluorescence microscope (Delta Vision). […]
2 Futamura, Y. et al. Morphobase, an encyclopedic cell morphology database, and […]

[11] = Cell death assay (WST-8) in HeLa cells; assay type: cell-based, human; conditions: human, HeLa cells (cervical cancer); 72 h, WST-8; read-out: cytotoxicity IC50 against HeLa cells
Description: as §1, §2

[12] = system: nuclear 53BP1 foci in HeLa cells; assay: 53BP1 foci immunofluorescence (DNA damage); assay type: cell-based, human; conditions: 24 h, only at the higher concentrations (100-300 μM)
Description: For 53BP1, test compound–treated HeLa cells were fixed in 3% formalin in PBS containing 0.1% Triton X-100 for 15 min and permeabilized in 0.5% Triton X-100 for 5 min. After blocking with 10% FBS and 0.1% Triton X-100 in PBS for 1 h, cells were incubated sequentially with a primary antibody against 53BP1 (1:600, sc-22760; Santa Cruz Biotechnology) in blocking solution at 37 °C for 1 h and with Alexa Fluor 568-conjugated secondary antibody (1:400, Life Technologies) under the same condition.
After a quick rinse in PBS, DNA was counterstained with 0.5 µg/mL Hoechst 33342 (Sigma-Aldrich) in PBS at room temperature for 10 min. Images were analyzed on a fluorescence microscope (Delta Vision). […]

[13] = system: 8-oxo-dG levels in DNA of HeLa cells; assay: 8-oxo-dG immunofluorescence; assay type: cell-based, human; conditions: 20 h, NPD compounds 100 μM, TH287 3 and 10 μM
Description: as §1, with “CO2. […]” for “CO2.”
The HeLa cells were seeded on glass coverslips in 12-well plates, cultured overnight, and treated with test compounds for the indicated time. For 8-oxo-dG, cells were fixed sequentially in 3.7% formalin for 10 min and methanol at -20 °C for 10 min, and then permeabilized in 0.5% Triton X-100 in PBS at room temperature for 5 min. After blocking with 0.5% BSA in PBS at room temperature for 30 min, cells were incubated sequentially with a primary antibody against 8-oxo-dG (5 µg/mL, MOG-020; Japan Institute for the Control of Aging) and with Alexa Fluor 488-conjugated secondary antibody (1:400, Life Technologies) under the same conditions. After a quick rinse in PBS, DNA was counterstained with 0.1 µg/mL 4′,6-diamidino-2-phenylindole (DAPI) in PBS at room temperature for 10 min. Images were analyzed with a fluorescence microscope (BX60, Olympus).

[14] = substrate 2-OH-dATP (8.3 μM), read-out: IC50 of MTH1 inhibitory activity, 2-OH-dATP
[15] = substrate 8-oxo-dGTP (13.2 μM), read-out: IC50 of MTH1 inhibitory activity, 8-oxo-dGTP

IC50 [2, 14] [µM]	IC50 [2, 15] [µM]	Structure (SMILES)	effect on enzymatic activity of DCTPP1 [3]	Bcl-2 phosphorylation [5]	effect on tubulin polymerization in vitro [6]	inhibition of other Nudix family members and nucleoside triphosphate pyrophosphatases [7]	population of HeLa cells in G2/M phase [9]	effect on intracellular microtubule networks [10]	other results
0.75 ± 0.4	0.32 ± 0.04	COc1ccc2nc3c(c(C)nn3C)c(NCCOCCO)c2c1 [SCH51344, reference compound]	slightly inhibited						IC50 [1]: 5.5 µM
		Nc1nc(NC2CC2)cc(-c2cccc(Cl)c2Cl)n1 [TH588]		induced Bcl-2 phosphorylation	inhibited tubulin polymerization	did not inhibit	increased the population of HeLa cells in G2/M phase	disrupted intracellular microtubule networks	tumor growth in mouse xenograft model [4]: suppressed tumor growth; effect against 87 enzymes, GPCRs, kinases, ion channels, and transporters [8]: little effect
6.7	3.3	CC(C)OCCCNc1ncnc2[nH]cnc12 [NPD15095]							
> 1000	> 1000	Cn1cnc2c(NCc3ccco3)ncnc21 [NPD8880]							IC50 at 72 h [11]: 650 µM; DNA damage (nuclear 53BP1 foci formation) [12]: induced DNA damage
		C[C@H](Oc1cc(-c2cnn(C3CCNCC3)c2)cnc1N)c1c(Cl)ccc(F)c1Cl [(S)-crizotinib, reference compound]	slightly inhibited						IC50 ([1]; 72 h, WST-8, read-out: cytotoxicity IC50 against HeLa cells): 13 µM

Structure (SMILES)	IC50 [2, 14] [µM]	IC50 [2, 15] [µM]	effect on enzymatic activity of DCTPP1 [3]	Bcl-2 phosphorylation [5]	effect on tubulin polymerization in vitro [6]	inhibition of other Nudix family members and nucleoside triphosphate pyrophosphatases [7]	population of HeLa cells in G2/M phase [9]	effect on intracellular microtubule networks [10]	other results
CNc1cc(-c2cccc(Cl)c2Cl)nc(N)n1 [TH287, reference compound]	0.0036 ± 0.0017	0.0022 ± 0.0003		induced Bcl-2 phosphorylation	inhibited tubulin polymerization	did not inhibit	increased the population of HeLa cells in G2/M phase	disrupted intracellular microtubule networks	accumulation of 8-oxo-dG [13]: increased 8-oxo-dG levels
